According to article PMC1838524 (The Journal of biological chemistry, 2006):

Biological target: T1, Vam7p PX domain (Saccharomyces cerevisiae, UniProt P32912)
T1 sequence (P32912 2-122): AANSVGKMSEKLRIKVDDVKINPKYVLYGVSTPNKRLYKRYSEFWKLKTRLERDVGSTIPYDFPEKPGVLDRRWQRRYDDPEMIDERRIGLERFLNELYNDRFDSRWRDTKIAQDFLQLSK
Assay: 1H-15N HSQC NMR titration
Format: binding

## CCCCCC(=O)OC[C@H](COP(=O)(O)OC[C@H](N)C(=O)O)OC(=O)CCCCC [C6-PtdSer, 1,2-dicaproyl-sn-glycero-3-[phospho-L-serine]]
  1H-15N HSQC NMR titration (chemical shift perturbation): NMR titration of soluble dicaproyl (C6)-PtdSer into the PX domain
